Experimental data reported in patent publication US5843925A, “Methods for inhibiting angiogenesis, proliferation of endothelial or tumor cells and tumor growth” (American Cyanamid Company, priority 1994, dated 1998).
Structures can show the parent of a compound that is named as a salt. Where two headings read alike, the source gives them in different places.

How the values were obtained:
Assay type in all cases: cell-based
[1] = tested on: Adult Bovine Aortic Endothelial (ABAE) cell line; assay: Antiproliferative activity in Adult Bovine Aortic Endothelial (ABAE) cell line, PROTOCOL 3; settings: for IC50: Bos taurus, 96 h, ABAE cells
Method: (§1) The antiproliferative activity of the compounds of Formula I in an Adult Bovine Aortic Endothelial (ABAE) cell line and in Human Tumor cells lines is evaluated in three similar assays that measure growth inhibition. The assays are identified as follows:
(§2) PROTOCOLS 1, 2, and 3 are described in greater detail hereinbelow. In general, according to PROTOCOLS 1 and 2, the target ABAE and/or Human Tumor cells are exposed to the compound of Formula I for 48 hours. PROTOCOL 3 exposes ABAE cells to the compounds for 4 days. A detailed description of the protocol is as follows:
Antiproliferative Activity in Adult Bovine Aortic Endothelial (ABAE) Cell Line
ABAE cells are grown in DMEM media (Mediatech Washington, D.C.) supplemented with 10% calf serum (Hyclone). ABAE cells are plated in 24-well dishes at 8,000 cells/well, followed by the addition of increasing concentrations of 7-[substituted amino]-9-[(substituted glycyl)amido]-6-demethyl-6-deoxytetra-cyclines. After four days, the cells are detached and counted. […] The growth inhibition (I) as % of control is calculated as follows: [formula] wherein: Nc is the number of cells in untreated wells;
Nt is the number of cells in treated wells;
No is the number of plated cells.
IC50 of growth inhibition is determined from the sets of I values plotted by Kaleidograph software (Abelbeck Software).
Table 2 presents the results depicting the antiproliferative activity of the compounds of Formula I against an adult bovine aortic endothelial cell line (ABAE), as evaluated by PROTOCOL 1 and PROTOCOL 3. The results are presented in terms of IC50 and are as follows.

A2780/DDP = assay: Antiproliferative activity in human tumor cell lines (A2780/DDP); settings: A2780/DDP ovarian tumor cell line
Method: as §2
(§3) The antiproliferative activity of the compounds of Formula I of the present invention is evaluated in a panel comprised of human tumor cell lines and an adult bovine aortic endothelial cell line (ABAE). The human tumor cell lines are from
(§4) Cultures are renewed after 20 passages with cells from a fresh stock of batch-frozen early passage cells. Cell lines are routinely checked for mycoplasma contamination (Genprobe). In a laminar flow hood, cells (1-5×10^4) are plated into 96-well microtiter plates in a volume of 0.1 ml/well with a bulk microtiter dispenser (Denley). […] Compounds are added using a Tomtec dispenser which simultaneously dispenses from one 96-well plate, containing the drug dilutions, to the plates containing the cells. After two days of continuous drug exposure, 50% cold trichloroacetic acid (TCA) is added to 10% final concentration to fix the cells, and after 60 minutes at 4° C., the TCA is aspirated and the plates are washed 5 times with deionized water using a microtiter plate washer. […] A 0.4% solution of the dye, sulforhodamine B, in […] is added to the plates, and the plates are washed 5 times with 1% glacial acetic acid using the automatic plate washed. The bound stain is solubilized with 0.1 ml of 10 mM Tris base. The optical densities are read from an automatic spectrophotometric plate reader (Dynatech) directly to a main frame computer (VAX 8600).
(§5) Positive controls, that include standard chemotherapeutic drugs (i.e., adriamycin, cisplatin, etc.), are included in every experiment.
(§6) Background optical density measurements (complete media-cells, and complete media+drug-cells) are automatically subtracted from the appropriate control and test wells. Mean values and standard errors are determined from duplicate wells. A measure is also made of the optical density at time when the drugs are added. The number of cells after treatment (P), as % of control, is calculated for every concentration of drug, as follows: [formula] wherein: T is optical density measurement for treated cells after 48 hours;
(§7) C is optical density measurement for untreated cells after 48 hours;
(§8) Co is optical density measurement for cells at the time of drug addition.
(§9) IC50 of growth inhibition is calculated from the sets of P values using the RS-1 data package (BBN Software).
(§10) Antiproliferative Activity in Human Tumor Cell Lines
(§11) The antiproliferative activity of the compounds of Formula I is evaluated in the panel comprised of human tumor cell lines as listed in PROTOCOL 1. This assay is a slight modification of PROTOCOL 1. The modifications include:
(§12) 1) each concentration for each compound is tested in a single well;
(§13) 2) compounds are tested at 20, 4, 0.8, 0.16 microgram/ml and additionally in some experiments at 100 and 0.32 microgram/ml;
(§14) 3) samples are pipetted into a 96-well plate for each of the cell lines by a Beckman Biomek 1000 SL robot;
(§15) 4) after fixing with TCA each well is washed with 0.35 ml distilled water twice, not five times;
(§16) 5) after staining with sulforhodamine B each well is washed 3 times, not five times;
(§17) 6) the growth inhibition (I) as % of control, is calculated using the RS-1 data package (BBN Software), for every concentration of drug, as follows: [formula] wherein: T is optical density measurement for treated cells after 48 hours;
(§18) 7) IC50 of growth inhibition is determined graphically from dose response curves, as is known in the art.

MIP = assay: Antiproliferative activity in human tumor cell lines (MIP); settings: MIP colon tumor cell line
Method: as §2, §3
(§19) All cell lines are maintained in log phase in RPMI 1640 media, supplemented with 5% fetal calf serum, penicillin/streptomycin and 2 mM L-glutamine. Cultures are renewed after 20 passages with cells from a fresh stock of batch-frozen early passage cells. Cell lines are routinely checked for mycoplasma contamination (Genprobe). In a laminar flow hood, cells (1-5×10^4) are plated into 96-well microtiter plates in a volume of 0.1 ml/well with a bulk microtiter dispenser (Denley). […] At this concentration, dimethylsulfoxide has no effect on cell growth. Compounds are added using a Tomtec dispenser which simultaneously dispenses from one 96-well plate, containing the drug dilutions, to the plates containing the cells. After two days of continuous drug exposure, 50% cold trichloroacetic acid (TCA) is added to 10% final concentration to fix the cells, and after 60 minutes at 4° C., the TCA is aspirated and the plates are washed 5 times with deionized water using a microtiter plate washer. The number of cells on the plate are quantitated using a protein dye-binding assay (Monks et al., 1991). A 0.4% solution of the dye, sulforhodamine B, in glacial acetic acid is added to the plates, and the plates are washed 5 times with 1% glacial acetic acid using the automatic plate washed. The bound stain is solubilized with 0.1 ml of 10 mM Tris base. The optical densities are read from an automatic spectrophotometric plate reader (Dynatech) directly to a main frame computer (VAX 8600).
as §5, §6, §7, §8, §9, §10, §11, §12, §13, §14, §15, §16
6) the growth inhibition (I) as % of control, is calculated using the RS-1 data package (BBN Software), for every concentration of drug, as follows: [formula] wherein: T is optical density measurement for treated cells after 48 hours; […]

HTB 161 = assay: Antiproliferative activity in human tumor cell lines (HTB 161)
Method: as §2, §3, §4, §5, §6, §7, §8, §9, §10, §11, §12, §13, §14, §15, §16, §17, §18

Human Tumor cell lines = assay: Antiproliferative activity in panel of human tumor cell lines (PROTOCOL 1 and PROTOCOL 2); settings: Homo sapiens; average over the tumor cell lines of Table 3
Method: as §1, §2, §3, §19, §5, §6, §7, §8, §9, §10, §11, §12, §13, §14, §15
5) after staining with sulforhodamine B each well is washed 3 times, not five times; […]

| Compound | activity upon incubation with cells ([1]; 4 day assay (Protocol 3)) | IC50 ([1]; 4 day assay (Protocol 3), FIG. 1 text, read-out: inhibits 50% of cell growth at) | IC50 ([1]; 4 days exposure, read-out: IC50 PROTOCOL 3) | IC50 (A2780/DDP) | IC50 (MIP) | IC50 (HTB 161) | IC50 (Human Tumor cell lines) |
| --- | --- | --- | --- | --- | --- | --- | --- |
| CN(C)CC(=O)Nc1cc(N(C)C)c2c(c1O)C(=O)C1=C(O)[C@]3(O)C(=O)C(C(N)=O)=C(O)[C@@H](N(C)C)C3CC1C2 (stereo partly drawn) [Example 2, [4S-(4a,12aa-1-4,7-Bis(dimethylamino)-9-[[(dimethylamino)acetyl]amino]]-1,4,,4a,5,5a,6,11,12a-octahvdro-3,10,12,12a-tetrahydroxy-1,11-dioxo-2-napththacenecarboxamidedihydrochloride] | retains its activity | ~3 µg/mL | 3 µg/mL | 7 µg/mL | 4.6 µg/mL | 6 µg/mL | 5.8 µg/mL |
| CCCCCCNCC(=O)Nc1cc(N(C)C)c2c(c1O)C(=O)C1=C(O)[C@]3(O)C(=O)C(C(N)=O)=C(O)[C@@H](N(C)C)C3CC1C2 (stereo partly drawn) [Example 4, [4S-(4α,12aα)]-4,7-Bis(dimethylamino)-9-[(hexylamino)acetyl]amino]-1,4,4a,5,5a,6,11,12a-octahydro-3,10,12,12a-tetrahydroxy-1,11-dioxo-2-naphthacenecarboxamide dihydrochloride] | – | – | – | 2.3 µg/mL | 2.8 µg/mL | 2 µg/mL | 2.3 µg/mL |
| CCCCCCCNCC(=O)Nc1cc(N(C)C)c2c(c1O)C(=O)C1=C(O)[C@]3(O)C(=O)C(C(N)=O)=C(O)[C@@H](N(C)C)C3CC1C2 (stereo partly drawn) [Example 5, [4S-(4α,12aα)]-4,7-Bis(dimethylamino)-9-[[(heptylamino)acetyl]amino]-1,4,4a,5,5a,6,11,12a-octahydro-3,10,12,12a-tetrahydroxy-1,11-dioxo-2-naphthacenecarboxamide dihydrochloride] | – | – | – | 2.5 µg/mL | 3.2 µg/mL | 2.3 µg/mL | 2.4 µg/mL |
